In US11712466B2, “Vaccine composition” (TOHOKU UNIVERSITY, priority 2017, dated 2023):
“Also recorded” adds a separate entry of the source. Ends that are not written are not given here.

Tests used:
[1] = tested on: Lewis lung cancer cells (LLC); test: Subcutaneous implant model, tumor growth inhibitory effect (LLC); type: in vivo, mouse; conditions: immunized C57BL/6J mice, cells implanted s.c. on day 29, measured 14 days after implantation
Method: (§1) After 2 weeks from the administration of each peptide vaccine and incomplete Freund's adjuvant in Example 1 (on day 29 after the initial peptide vaccine administration), mouse-derived tumor cells were implanted in an immunized mouse, whereby a subcutaneous implant model was prepared. Specifically, mouse lung cancer cells (Lewis lung cancer cells (LLC)) or mouse melanoma cells (B16F1) (all have C57BL/6J as a genetic background) cultured in a RPMI+10% FBS medium were collected by centrifugation, and a cell suspension (1.0×10^8 cells/mL) was prepared with a serum-free medium, and 0.1 mL (1.0×10^7 cells/animal) of the cell suspension was implanted in a right axillary subcutaneous region of a mouse using a 27G injection needle and a syringe, whereby a subcutaneous implant model of tumor cells was prepared.

[2] = tested on: Lewis lung cancer cells; test: In vitro wound migration method with serum of immunized mouse (LLC); type: cell-based; conditions: 1% serum of mouse with increased anti-VASH2 titer after vaccine; 24 and 48 hours
Method: (§2) By using the serum derived from a mouse in which an increase in the antibody titer against the recombinant human VASH2 protein by administration of the MTG peptide vaccine was confirmed, the effect on the migration ability of various types of cancer cells was examined by an in vitro wound migration method. Mouse-derived Lewis lung cancer cells and human-derived RH30 rhabdomyosarcoma cells were added to a 6-well plate at 1.0×10^6 cells each. After 24 hours, a formed cell monolayer was wounded and linearly exfoliated. After the exfoliation, the medium was replaced with fresh 0.5% FBS+RPMI medium supplemented with 1% mouse serum. At 24 hours and 48 hours after the medium replacement, the image of the cell monolayer was captured using an IX71 inverted microscope (manufactured by Olympus Corporation), and a cell migration distance of each time zone was analyzed using ImageJ software. The analysis was carried out according to the following formula. Cell migration distance (%)={(A−B)/A}×100
(§3) A: Width of initial wound, B: Width of wound after 24 hours or 48 hours

[3] = tested on: RH30 rhabdomyosarcoma cells; test: In vitro wound migration method with serum of immunized mouse (RH30); type: cell-based, human; conditions: 1% serum of mouse with increased anti-VASH2 titer after vaccine; 24 and 48 hours
Method: as §2, §3

[4] = tested on: KPC mouse; test: Life-extending effect in KPC mouse, spontaneous pancreatic cancer model; type: in vivo; conditions: KPC mice n=8, 100 μg with Alhydrogel every two weeks; all KLH controls (n=7) died before 300 days
Method: To a KPC mouse (aged 8 weeks at the initial immunization) that is a spontaneous pancreatic cancer model, 100 μg of the MTG peptide vaccine was administered together with Alhydrogel (registered trademark) every two weeks, and the survival rate thereof was confirmed (n=8). A KPC mouse to which 100 μg of KLH was administered according to the same schedule was used as a control (n=7) (FIG. 13).

[5] = tested on: pancreatic cancer cell line (K5); test: Metastasis inhibitory effect in vivo, K5 injected through tail vein, lung metastatic lesion; parameters: species or system mouse; conditions: 100 μg, Alhydrogel, C57BL/6J mice, day 21 after K5 injection; KLH control 2 out of 5 mice with metastasis
Method: 20 μg or 100 μg of KLH (control) and 20 μg or 100 μg of the MTG peptide vaccine were prepared with physiological saline so that the total amount was 100 μL, respectively, whereby KLH-mixed solutions were obtained. To each of the KLH-mixed solutions (100 μL), an equal amount of Alhydrogel (registered trademark) was added. The obtained mixture (200 μL) was intradermally (ID) administered to C57BL/6J male mice (n=5) aged 8 weeks, whereby initial immunization was carried out (0 day). Incidentally, in the intradermal administration, 200 μL was administered at a dose of 100 μL each to two sites. After 2 weeks from the administration (14 days), booster immunization was carried out by subcutaneously administering a mixture of each of the KLH-mixed solutions (100 μL) and an equal amount of Alhydrogel (registered trademark) to the mice. […] Further, at that time point, the blood was collected from each mouse, and the antibody titer of an antibody specific to the antigen peptide or the recombinant human VASH2 protein was measured by ELISA. The mice were sacrificed on day 21 after the injection of K5 (49 days), and the lung metastatic lesion was analyzed (FIG. 10). […]

[6] = tested on: mouse melanoma cells (B16F1); test: Subcutaneous implant model, tumor growth inhibitory effect (B16F1); type: in vivo; conditions: immunized C57BL/6J mice, cells implanted s.c. on day 29, measured 14 days after implantation
Method: as §1

[7] = tested on: mCD31; test: Gene expression in excised tumor tissue by real-time PCR, mCD31; type: in vivo, mouse; conditions: 20 μg vaccine; tumor excised two weeks after implantation
Method: The mouse implanted with the tumor cells in Example 2 was sacrificed two weeks after implantation of the tumor cells, and a tumor was excised from the right axillary subcutaneous region. By using RNeasy Plus Kit (Qiagen, Inc.), extraction of the total RNA from the excised tumor and purification thereof were carried out. By using the obtained total RNA as a template, cDNA was synthesized by reverse transcription reaction. The cDNA was analyzed by performing real-time PCR using a mixed solution of the obtained cDNA and SYBR green (TAKARA BIO, Inc.).

## MTG peptide vaccine: MTG peptide MTGSAADTHR (SEQ ID NO: 4) conjugated with KLH as carrier by a glutaraldehyde method (also: conjugated with KLH by glutaraldehyde)
[1]
  tumor size (tumorigenesis), Lewis lung cancer cells: marked inhibition of tumorigenesis; also recorded: marked inhibition of tumor growth
[2]
  cell migration, mouse-derived Lewis lung cancer cells: migration inhibitory effect
[3]
  cell migration, human-derived RH30 rhabdomyosarcoma cells: migration inhibitory effect
[4]
  mice survived over 300 days after birth: at least 2 mice
[5]
  lung metastasis of the pancreatic cancer cells K5: not confirmed in all four individuals
[6]
  tumor size (tumorigenesis), B16F1 melanoma cells: marked inhibition of tumorigenesis; also recorded: marked inhibition of tumor growth
[7]
  expression of mCD31 (angiogenesis marker) in tumor tissue: expression of mCD31 was inhibited; also recorded: a tendency to inhibit the expression
